Experimental data taken from PubChem BioAssay AID1918956 (Molecular Pharmacology Branch, DTP, NCI, 2023).
Several values for one entry are separate records, joined by “and”; a condition that tells them apart may be missing. Equal values may be shown once.

Test system: OVCAR-5 complex spheroids, viability
Assay: Anticancer human tumor OVCAR-5 cell line growth inhibition;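 note: spheroids exposed to agents for seven days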;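 for viability, T/C: 100% = DMSO vehicle control wells viability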
Details: for viability, T/C: stronger effect = lower value
Procedure, shortened: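 Drug combinations with the LSD1 inhibitor iadademstat tested on tumor cells co-cultured as spheroids with endothelial cells and mesenchymal stem cells. Concentrations descended in half-log increments from clinical Cmax or 10 microM.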

[1] = curve of first compound, second compound 0.1 µM
[2] = curve of first compound, second compound 0.316 µM
[3] = curve of first compound, second compound 1 µM
[4] = curve of first compound, second compound 3.16 µM
[5] = curve of first compound, second compound 10 µM
[6] = second compound 0.1 µM, first compound 0.00316 µM
[7] = second compound 0.1 µM, first compound 0.01 µM
[8] = second compound 0.1 µM, first compound 0.0316 µM
[9] = second compound 0.1 µM, first compound 0.1 µM
[10] = second compound 0.316 µM, first compound 0.00316 µM
[11] = second compound 0.316 µM, first compound 0.01 µM
[12] = second compound 0.316 µM, first compound 0.0316 µM
[13] = second compound 0.316 µM, first compound 0.1 µM
[14] = second compound 1 µM, first compound 0.00316 µM
[15] = second compound 1 µM, first compound 0.01 µM
[16] = second compound 1 µM, first compound 0.0316 µM
[17] = second compound 1 µM, first compound 0.1 µM
[18] = second compound 3.16 µM, first compound 0.00316 µM
[19] = second compound 3.16 µM, first compound 0.01 µM
[20] = second compound 3.16 µM, first compound 0.0316 µM
[21] = second compound 3.16 µM, first compound 0.1 µM
[22] = second compound 10 µM, first compound 0.00316 µM
[23] = second compound 10 µM, first compound 0.01 µM
[24] = second compound 10 µM, first compound 0.0316 µM
[25] = second compound 10 µM, first compound 0.1 µM

With NS(=O)(=O)OCC1CC(n2ccc3c(NC4CCc5ccccc54)ncnc32)CC1O (configuration not stated) + NC1CC1c1ccc(-c2cccc(O)c2)cc1 the IC50 [1] was 186 nM, the IC50 [2] was 178 nM and the IC50 [3] was 145 nM. It also gave an IC50 [4] of 156 nM, an IC50 [5] of 83.9 nM and a viability, T/C (second compound 0.1 µM, first compound 0.00949 µM) of 145%. For the same molecule, the viability, T/C (second compound 0.1 µM, first compound 0.03 µM) was 133%, the viability, T/C (second compound 0.1 µM, first compound 0.0949 µM) was 84.2% and the viability, T/C (second compound 0.1 µM, first compound 0.3 µM) was 25.6%. For the same molecule, the viability, T/C (second compound 0.1 µM, first compound 0.949 µM) was 8.27%, the viability, T/C (second compound 0.1 µM, first compound 3 µM) was 5.16% and the viability, T/C (second compound 0.316 µM, first compound 0.00949 µM) was 152%. The viability, T/C (second compound 0.316 µM, first compound 0.03 µM) was 149%, the viability, T/C (second compound 0.316 µM, first compound 0.0949 µM) was 79.6% and the viability, T/C (second compound 0.316 µM, first compound 0.3 µM) was 26.9%. For the same molecule, the viability, T/C (second compound 0.316 µM, first compound 0.949 µM) was 22.2%, the viability, T/C (second compound 0.316 µM, first compound 3 µM) was 4.93% and the viability, T/C (second compound 1 µM, first compound 0.00949 µM) was 117%. It also gave a viability, T/C (second compound 1 µM, first compound 0.03 µM) of 145%, a viability, T/C (second compound 1 µM, first compound 0.0949 µM) of 72% and a viability, T/C (second compound 1 µM, first compound 0.3 µM) of 25%. The viability, T/C (second compound 1 µM, first compound 0.949 µM) was 7.9%, the viability, T/C (second compound 1 µM, first compound 3 µM) was 4.8% and the viability, T/C (second compound 3.16 µM, first compound 0.00949 µM) was 141%. It also gave a viability, T/C (second compound 3.16 µM, first compound 0.03 µM) of 126%, a viability, T/C (second compound 3.16 µM, first compound 0.0949 µM) of 69.7% and a viability, T/C (second compound 3.16 µM, first compound 0.3 µM) of 23.8%. For the same molecule, the viability, T/C (second compound 3.16 µM, first compound 0.949 µM) was 7.78%, the viability, T/C (second compound 3.16 µM, first compound 3 µM) was 4.11% and the viability, T/C (second compound 10 µM, first compound 0.00949 µM) was 131%. The viability, T/C (second compound 10 µM, first compound 0.03 µM) was 101%, the viability, T/C (second compound 10 µM, first compound 0.0949 µM) was 42.7% and the viability, T/C (second compound 10 µM, first compound 0.3 µM) was 16.2%. The viability, T/C (second compound 10 µM, first compound 0.949 µM) was 6.76% and the viability, T/C (second compound 10 µM, first compound 3 µM) was 4.61%.

In the case of CC(C)CC(NC(=O)C(Cc1ccccc1)NC(=O)c1cnccn1)B(O)O (configuration not stated) + NC1CCC(NC2CC2c2ccccc2)CC1, the IC50 [1] is reported as 7.78 nM, the IC50 [2] is reported as 8.49 nM and the IC50 [3] is reported as 7.89 nM. It also gave an IC50 [4] of 7.42 nM, an IC50 [5] of 6.4 nM and a viability, T/C (second compound 0.1 µM, first compound 0.000316 µM) of 92%. It also gave a viability, T/C (second compound 0.1 µM, first compound 0.001 µM) of 100%, a viability, T/C [6] of 84.3% and a viability, T/C [7] of 39.5%. It also gave a viability, T/C [8] of 16.2%, a viability, T/C [9] of 6.2% and a viability, T/C (second compound 0.316 µM, first compound 0.000316 µM) of 97.3%. For the same molecule, the viability, T/C (second compound 0.316 µM, first compound 0.001 µM) was 97.9%, the viability, T/C [10] was 87.4% and the viability, T/C [11] was 42.6%. For the same molecule, the viability, T/C [12] was 16.1%, the viability, T/C [13] was 5.03% and the viability, T/C (second compound 1 µM, first compound 0.000316 µM) was 88.6%. The viability, T/C (second compound 1 µM, first compound 0.001 µM) was 98.8%, the viability, T/C [14] was 85.2% and the viability, T/C [15] was 39.9%. For the same molecule, the viability, T/C [16] was 15.4%, the viability, T/C [17] was 5.03% and the viability, T/C (second compound 3.16 µM, first compound 0.000316 µM) was 79.8%. It also gave a viability, T/C (second compound 3.16 µM, first compound 0.001 µM) of 104%, a viability, T/C [18] of 78.6% and a viability, T/C [19] of 39%. For the same molecule, the viability, T/C [20] was 13.6%, the viability, T/C [21] was 4.87% and the viability, T/C (second compound 10 µM, first compound 0.000316 µM) was 84.4%. It also gave a viability, T/C (second compound 10 µM, first compound 0.001 µM) of 82.3%, a viability, T/C [22] of 73.4% and a viability, T/C [23] of 35.1%. The viability, T/C [24] was 10.2% and the viability, T/C [25] was 3.83%.

With COc1ccc([C@@H](O)c2cc(-c3ncnc4cc(N5CCOCC5)ccc34)c(F)cc2Cl)nn1 the viability, T/C (compound 0.0316 µM) was 92.1% and 91.6%, the viability, T/C (compound 0.1 µM) was 91.6% and 84.7% and the viability, T/C (compound 0.316 µM) was 73.3% and 58.1%. The viability, T/C (compound 1 µM) was 55.4% and 44.1%, the viability, T/C (compound 3.16 µM) was 45.3% and 32.7% and the viability, T/C (compound 10 µM) was 24.9% and 18.4%. The IC50 (curve of compound) was 1790 nM and 690 nM.

CC1COCCN1c1cc(-c2ccnn2C)c2ccnc(-c3ccn[nH]3)c2n1 (configuration not stated) + NC1CCC(NC2CC2c2ccccc2)CC1 showed an IC50 [1] of 61.8 nM, an IC50 [2] of 61.9 nM and an IC50 [3] of 81.4 nM. For the same molecule, the IC50 [4] was 71.1 nM, the IC50 [5] was 47.7 nM and the viability, T/C [6] was 111%. The viability, T/C [7] was 86.9%, the viability, T/C [8] was 60.4% and the viability, T/C [9] was 41.7%. The viability, T/C (second compound 0.1 µM, first compound 0.316 µM) was 37.2%, the viability, T/C (second compound 0.1 µM, first compound 1 µM) was 31.6% and the viability, T/C [10] was 110%. The viability, T/C [11] was 87.7%, the viability, T/C [12] was 61.2% and the viability, T/C [13] was 41%. For the same molecule, the viability, T/C (second compound 0.316 µM, first compound 0.316 µM) was 37.4%, the viability, T/C (second compound 0.316 µM, first compound 1 µM) was 32% and the viability, T/C [14] was 104%. It also gave a viability, T/C [15] of 88.8%, a viability, T/C [16] of 65.2% and a viability, T/C [17] of 46.2%. The viability, T/C (second compound 1 µM, first compound 0.316 µM) was 39.4%, the viability, T/C (second compound 1 µM, first compound 1 µM) was 34.7% and the viability, T/C [18] was 83.8%. It also gave a viability, T/C [19] of 83.4%, a viability, T/C [20] of 60.1% and a viability, T/C [21] of 46.8%. The viability, T/C (second compound 3.16 µM, first compound 0.316 µM) was 40.7%, the viability, T/C (second compound 3.16 µM, first compound 1 µM) was 35.8% and the viability, T/C [22] was 79.1%. For the same molecule, the viability, T/C [23] was 65.9%, the viability, T/C [24] was 55% and the viability, T/C [25] was 41.9%. It also gave a viability, T/C (second compound 10 µM, first compound 0.316 µM) of 37.8% and a viability, T/C (second compound 10 µM, first compound 1 µM) of 33.3%.
